Results as given in article PMC10794345, “Analysis of vascular disruption in zebrafish embryos as an endpoint to predict developmental toxicity” (Archives of Toxicology, 2023).

Key:
[1] = test system: zebrafish embryos, transgenic line Tg(kdr:EGFP); assay: Number of ISVs by video subtraction in Tg(kdr:EGFP) zebrafish embryos; format: in vivo, zebrafish (D. rerio)
Procedure: (§1) Fertilized and normally developed embryos were selected according to Kimmel et al. ([1995]) with a dissection microscope (Olympus SZx7-ILLT) at 1 hpf. Depending on experiment, exposure was started within 2–3 h post-fertilization (16–128 cell stages) or at 24 hpf. Exposure was conducted in rectangular 96-well microplates (Clear Polystyrene, flat bottom, Uniplate, Whatman, GE Healthcare) covered by a lid with a test volume of 400 µL of exposure media. For each replicate one embryo per well and 16 wells per concentration were assessed. Experiments were performed with at least two replicates on independent days and breeding.
(§2) To determine the number of ISVs in the trunk region, high-resolution images of 96 hpf-old zebrafish embryos were recorded using a Leica DM6B-Z microscope (Leica, Wetzlar, Germany) attached to the VAST imaging system, and a camera (Leica DFC9000 sCMOS, objective: HC APO L U-V-I 20x/0.50 WATER UV). A series of 20 images with a frame rate of 20 images per second and a 2 × 2 pixel binning was recorded in autofocus mode for each embryo. For the Tg(kdr:EGFP) strain, one additional fluorescence image was obtained using a fluorescent filter set (emission wavelength 540 nm, excitation filter BP 450–490) and a camera exposure time of 129 ms and a 2. × 2 binning in autofocus mode.
A series of MATLAB scripts (Supplement File ‘Workflow 3.m’ and ‘Workflow 4.m’) was used to convert the image series into a video and to visualize the blood vessel by applying a video subtraction approach (Figure SI1). Briefly, each video frame was subtracted from the average image of the whole image sequence and converted to a binary image by applying a Gaussian blur (σ = 5) and a threshold of 0.025 to obtain optimal contrast in binary images. Subsequently, the sum of all binary images was calculated. Due to movement of the blood cells the subtraction approach removed all parts from the image which were not moving resulting in an image of the blood vessels. This binary image of the blood vessel network in the zebrafish embryo tail was then processed with the FishInspector annotation software (version 1.70). […] The number of ISVs was obtained by application of a KNIME workflow to FishInspector annotation files. Subsequently concentration–response analysis was conducted using a KNIME workflow. The coefficient of variation (CV) of controls was calculated for both the subtraction and the fluorescence-based method by dividing the standard deviation of individual embryos with the control mean: CVControl=SD/Mean.
Concentration–response curves were fitted for lethality, heart rate, morphological features as previously described (Teixidó et al. [2019], [2022]). The assessment of lethality and morphological features was based on the percentage of embryos affected. Therefore, morphological endpoints were dichotomized, i.e. feature metrics were converted to the percentage of embryos deviating from controls. An embryo was considered to deviate when it was outside 1.5-fold of the standard deviation range of the mean of the control group. The control mean was determined by pooling control embryos across all experiments (n = 160) (available at git.ufz.de). For heart rate and angiogenesis (number of ISVs) the analysis was based on normalized values, i.e. for each experiment the values of the treatment were divided by the control value. The experiments were designed to calculate effect concentrations based on modelled curve fits. […]

[2] = test system: zebrafish embryos, transgenic line Tg(kdr:EGFP); assay: Number of ISVs by fluorescence imaging in Tg(kdr:EGFP) zebrafish embryos; format: in vivo, zebrafish (D. rerio); details: exposure 24–96 hpf, 0.31–10 µM
Procedure: as §1
as §2, with “mode. […]” for “mode.”

CN(C)c1ccc(C=C2C(=O)Nc3ccccc32)cc1 [SU4312]
EC10 (IC10) number of ISVs, subtraction image ([1]; Tg(kdr:EGFP), exposure 24–96 hpf, 0.31–10 µM): 0.72 µM | EC50 ([1]; Tg(kdr:EGFP), exposure 24–96 hpf, 0.31–10 µM, read-out: EC50 (IC50) number of ISVs, subtraction image): 2.98 µM | EC50 ([1]; arterial ISVs only, subtraction method, ± 95% confidence where given, read-out: aISVs EC50): 2.58 ± 3.12 µM | EC50 ([1]; subtraction method, ± 95% confidence where given, read-out: all ISVs EC50 (combined assessment)): 2.98 µM | EC50 ([1]; venous ISVs only, subtraction method, ± 95% confidence where given, read-out: vISVs EC50): 0.75 ± 0.17 µM | EC10 (IC10) number of ISVs, fluorescent image [2]: 1.17 µM | EC50 ([2]; read-out: EC50 number of ISVs, fluorescent image): > 10 µM
